From patent US8865724B2, “Preparation of 2-methyl-4-amino-5(substituted-1H-1,2,3-triazolyl)methylpyrimidine derivatives and microbicidal activity thereof” (Central China Normal University, priority 2011, dated 2014)
Where two headings read alike, the source gives them in different places.

Assays:
[1] = test system: Rice Sheath Blight Disease; test: Microbicidal activity, spray then strip inoculation (Embodiment 8); conditions: Oryza sativa, read-out: Rice Sheath Blight Disease Average inhibition rate (%)
Protocol: (§1) (Pseudomonassyringaepv. tomato (Okabe) Young, Dye & Wilkie), Cucumber Angular Leaf Spot, Rice Sheath Blight Disease (Rhizoctonia solani), Corynespora Leaf Spot of Cucumber (Corynespora cassiicola), Downy Mildew of Cucumber (Cucumber Downy Mildew).
(§2) Testing agents and control agents were sprayed uniformly at A.M. of a sunshine day on the cucumber seminal leaves. After 2 hours, the leaves were inoculated with pathogenic microbes and cultured at humidity. […] Strip inoculation is used for Rice Sheath Blight Disease and phytophthora blight of pepper, in which the liquor was sprayed and after 2 hours, inoculation of strips was performed followed by culturing at humidity. After full occurrence of diseases in the control group, state of illness was examined according to grading standards, and a disease index and inhibition rate were calculated.

[2] = test system: Cucumber Angular Leaf Spot; test: Microbicidal activity on cucumber seedlings, spray then inoculation (Embodiment 8); conditions: Cucumis sativus, read-out: Cucumber Angular Leaf Spot Average inhibition rate (%)
Protocol: as §1, §2

[3] = test system: Corynespora Leaf Spot of Cucumber; test: Microbicidal activity on cucumber seedlings, spray then spore inoculation (Embodiment 8); conditions: Corynespora, in Cucumis sativus, read-out: Corynespora Leaf Spot of Cucumber Average inhibition rate (%)
Protocol: as §1, §2

[4] = test system: Downy Mildew of Cucumber; test: as above; conditions: Cucumis sativus, read-out: Downy Mildew of Cucumber Average inhibition rate (%)
Protocol: as §1, §2

[5] = test system: gray mold of cucumber; test: Spawn growth rate on agar plates (Embodiment 9); type: cell-based, Botrytis cinerea; conditions: 48 h; for inhibition of growth at 12.5 µg/g: Concentration 12.5 μg/g; for inhibition of growth at 25 µg/g: Concentration 25 μg/g; for inhibition of growth at 50 µg/g: Concentration 50 μg/g
[6] = test system: wheat scab; test: microbe, parasite or virus in culture; type: cell-based, Gibberella zeae; conditions: for inhibition of growth at 100 µg/g: 48 h, read-out: Wheat scab Average inhibition rate (%); for Wheat scab (inhibition): Table 7
[7] = test system: early blight of tomato; test: Spawn growth rate on agar plates (Embodiment 9); type: cell-based, Alternaria solania; conditions: for inhibition of growth at 100 µg/g: 48 h, testing concentration of 100 μg/g, Table 6; for Early blight of tomato (inhibition): Table 7
[8] = test system: Rice Sheath Blight Disease (sheath and culm blight of rice); test: Spawn growth rate on agar plates (Embodiment 9); type: cell-based, Rhizoctonia solani; conditions: 48 h; for inhibition of growth at 12.5 µg/g: Concentration 12.5 μg/g; for inhibition of growth at 25 µg/g: Concentration 25 μg/g; for inhibition of growth at 50 µg/g: Concentration 50 μg/g
[9] = testing concentration of 100 μg/g, Table 4, read-out: Gray mold of cucumber Average inhibition rate (%)
[10] = testing concentration of 100 μg/g, Table 6, read-out: Gray mold of cucumber Average inhibition rate (%)
[11] = testing concentration of 100 μg/g, Table 6, read-out: Sheath and culm blight of rice Average inhibition rate (%)
[12] = Concentration 100 μg/g, Table 7, read-out: Gray mold of cucumber (inhibition)
[13] = Concentration 100 μg/g, Table 7, read-out: Sheath and culm blight of rice (inhibition)

Cc1ncc(Cn2cc(COc3ccc([N+](=O)[O-])cc3)nn2)c(N)n1 [Compound 1]
pest or weed control at 500 µg/g [1]: 90%
pest or weed control at 500 µg/g [2]: 60%
pest or weed control at 500 µg/g [3]: 50%
pest or weed control at 500 µg/g [4]: 75%

CCOC(=O)c1ccc(OCc2cn(Cc3cnc(C)nc3N)nn2)cc1 [Compound 3]
inhibition of growth at 100 µg/g [5, 9]: 70%
melting point: 190 to 192 °C
pest or weed control at 500 µg/g [1]: 80%
pest or weed control at 500 µg/g [2]: 60%
pest or weed control at 500 µg/g [3]: 80%
pest or weed control at 500 µg/g [4]: 60%

Cc1ncc(Cn2cc(COc3ccc(F)cc3Cl)nn2)c(N)n1 [Compound 6]
inhibition of growth at 100 µg/g [5, 9]: 63%
melting point: 169 to 171 °C
pest or weed control at 500 µg/g [1]: 70%
pest or weed control at 500 µg/g [2]: 65%
pest or weed control at 500 µg/g [3]: 90%
pest or weed control at 500 µg/g [4]: 30%

Cc1ncc(Cn2cc(COc3ccc([N+](=O)[O-])cc3[N+](=O)[O-])nn2)c(N)n1 [Compound 8]
inhibition of growth at 100 µg/g [5, 9]: 54%
melting point: 210 to 211 °C
pest or weed control at 500 µg/g [1]: 70%
pest or weed control at 500 µg/g [2]: 60%
pest or weed control at 500 µg/g [3]: 70%
pest or weed control at 500 µg/g [4]: 60%

COC(=O)Cc1ccc(OCc2cn(Cc3cnc(C)nc3N)nn2)cc1 [Compound 9]
inhibition of growth at 100 µg/g [5, 9]: 79%
melting point: 142 to 143 °C
pest or weed control at 500 µg/g [1]: 90%
pest or weed control at 500 µg/g [2]: 60%
pest or weed control at 500 µg/g [3]: 60%
pest or weed control at 500 µg/g [4]: 80%

Cc1ncc(Cn2cc(COc3ccc(Cl)c(C)c3)nn2)c(N)n1 [Compound 11]
inhibition of growth at 100 µg/g [5, 9]: 67%
inhibition of growth at 100 µg/g [6]: 54%
melting point: 142 to 143 °C
pest or weed control at 500 µg/g [1]: 70%
pest or weed control at 500 µg/g [2]: 60%
pest or weed control at 500 µg/g [3]: 65%
pest or weed control at 500 µg/g [4]: 50%

Cc1ncc(Cn2cc(COc3ccccc3)nn2)c(N)n1 [Compound 12]
inhibition of growth at 100 µg/g [5, 9]: 53%
melting point: 132 to 133 °C
pest or weed control at 500 µg/g [1]: 80%
pest or weed control at 500 µg/g [2]: 60%
pest or weed control at 500 µg/g [3]: 70%
pest or weed control at 500 µg/g [4]: 70%

COc1ccc(OCc2cn(Cc3cnc(C)nc3N)nn2)cc1 [Compound 13]
inhibition of growth at 100 µg/g [5, 9]: 49%
melting point: 115 to 117 °C
pest or weed control at 500 µg/g [1]: 70%
pest or weed control at 500 µg/g [2]: 60%
pest or weed control at 500 µg/g [3]: 80%
pest or weed control at 500 µg/g [4]: 50%

Cc1ncc(Cn2cc(COc3ccccc3[N+](=O)[O-])nn2)c(N)n1 [Compound 16]
inhibition of growth at 100 µg/g [5, 9]: 82%
inhibition of growth at 100 µg/g [6]: 63%
melting point: 184 to 185 °C
pest or weed control at 500 µg/g [1]: 70%
pest or weed control at 500 µg/g [2]: 70%
pest or weed control at 500 µg/g [3]: 80%
pest or weed control at 500 µg/g [4]: 50%

Cc1ncc(Cn2nnc(COc3ccccc3)c2I)c(N)n1 [Compound 23]
inhibition of growth at 100 µg/g [5, 10]: 88%
inhibition of growth at 100 µg/g [6]: 59%
inhibition of growth at 100 µg/g [7]: 57%
inhibition of growth at 100 µg/g [8, 11]: 96%

Cc1ncc(Cn2nnc(COc3ccc([N+](=O)[O-])cc3)c2I)c(N)n1 [Compound 24]
inhibition of growth at 100 µg/g [5, 10]: 84%
inhibition of growth at 100 µg/g [6]: 68%
inhibition of growth at 100 µg/g [7]: 66%
inhibition of growth at 100 µg/g [8, 11]: 97%
melting point: 215 to 217 °C

Cc1ncc(Cn2nnc(COc3ccc(Cl)c(C)c3)c2I)c(N)n1 [Compound 25]
inhibition of growth at 12.5 µg/g ([5]; Table 8): 40%
inhibition of growth at 25 µg/g ([5]; Table 8): 50%
inhibition of growth at 50 µg/g ([5]; Table 8): 67%
inhibition of growth at 100 µg/g [5, 10]: 96%
inhibition of growth at 100 µg/g [6]: 62%
inhibition of growth at 100 µg/g [7]: 71%
inhibition of growth at 12.5 µg/g ([8]; Table 8): 0%
inhibition of growth at 25 µg/g ([8]; Table 8): 25%
inhibition of growth at 50 µg/g ([8]; Table 8): 61%
inhibition of growth at 100 µg/g [8, 11]: 97%
melting point: 215 to 217 °C

COc1ccc(OCc2nnn(Cc3cnc(C)nc3N)c2I)cc1 [Compound 26]
inhibition of growth at 12.5 µg/g ([5]; Table 8): 43%
inhibition of growth at 25 µg/g ([5]; Table 8): 55%
inhibition of growth at 50 µg/g ([5]; Table 8): 88%
inhibition of growth at 100 µg/g [5, 10]: 92%
inhibition of growth at 100 µg/g [6]: 55%
inhibition of growth at 100 µg/g [7]: 69%
inhibition of growth at 12.5 µg/g ([8]; Table 8): 58%
inhibition of growth at 25 µg/g ([8]; Table 8): 72%
inhibition of growth at 50 µg/g ([8]; Table 8): 94%
inhibition of growth at 100 µg/g [8, 11]: 99%
melting point: 177 to 179 °C

Cc1ncc(Cn2nnc(COc3ccc(F)cc3Cl)c2I)c(N)n1 [Compound 27]
inhibition of growth at 12.5 µg/g ([5]; Table 8): 59%
inhibition of growth at 25 µg/g ([5]; Table 8): 66%
inhibition of growth at 50 µg/g ([5]; Table 8): 92%
inhibition of growth at 100 µg/g [5, 10]: 99%
inhibition of growth at 100 µg/g [6]: 39%
inhibition of growth at 100 µg/g [7]: 38%
inhibition of growth at 12.5 µg/g ([8]; Table 8): 0%
inhibition of growth at 25 µg/g ([8]; Table 8): 37%
inhibition of growth at 50 µg/g ([8]; Table 8): 72%
inhibition of growth at 100 µg/g [8, 11]: 94%
melting point: 187 to 189 °C

Cc1ncc(Cn2nnc(COc3ccc(Cl)cc3)c2I)c(N)n1 [Compound 28]
inhibition of growth at 12.5 µg/g ([5]; Table 8): 85%
inhibition of growth at 25 µg/g ([5]; Table 7): 42%
inhibition of growth at 25 µg/g ([5]; Table 8): 90%
inhibition of growth at 50 µg/g ([5]; Table 7): 86%
inhibition of growth at 50 µg/g ([5]; Table 8): 98%
inhibition of growth at 100 µg/g [5, 12]: 90%
inhibition of growth at 100 µg/g [5, 10]: 100%
inhibition of growth at 100 µg/g [6]: 67%
Wheat scab (inhibition) ([6]; Concentration 25 μg/g): 43%
Wheat scab (inhibition) ([6]; Concentration 50 μg/g): 64%
Wheat scab (inhibition) ([6]; Concentration 100 μg/g): 69%
inhibition of growth at 100 µg/g [7]: 69%
Early blight of tomato (inhibition) ([7]; Concentration 25 μg/g): 0%
Early blight of tomato (inhibition) ([7]; Concentration 50 μg/g): 28%
Early blight of tomato (inhibition) ([7]; Concentration 100 μg/g): 68%
inhibition of growth at 12.5 µg/g ([8]; Table 8): 87%
inhibition of growth at 25 µg/g ([8]; Table 7): 91%
inhibition of growth at 25 µg/g ([8]; Table 8): 96%
inhibition of growth at 50 µg/g ([8]; Table 7): 98%
inhibition of growth at 50 µg/g ([8]; Table 8): 98%
inhibition of growth at 100 µg/g [8, 13]: 99%
inhibition of growth at 100 µg/g [8, 11]: 100%
melting point: 183 to 185 °C

Cc1ncc(Cn2nnc(COc3ccc(Cl)cc3C)c2I)c(N)n1 [Compound 29]
inhibition of growth at 12.5 µg/g ([5]; Table 8): 47%
inhibition of growth at 25 µg/g ([5]; Table 7): 79%
inhibition of growth at 25 µg/g ([5]; Table 8): 72%
inhibition of growth at 50 µg/g ([5]; Table 7): 90%
inhibition of growth at 50 µg/g ([5]; Table 8): 91%
inhibition of growth at 100 µg/g [5, 12]: 100%
inhibition of growth at 100 µg/g [5, 10]: 100%
inhibition of growth at 100 µg/g [6]: 67%
Wheat scab (inhibition) ([6]; Concentration 25 μg/g): 26%
Wheat scab (inhibition) ([6]; Concentration 50 μg/g): 45%
Wheat scab (inhibition) ([6]; Concentration 100 μg/g): 52%
inhibition of growth at 100 µg/g [7]: 60%
Early blight of tomato (inhibition) ([7]; Concentration 25 μg/g): 0%
Early blight of tomato (inhibition) ([7]; Concentration 50 μg/g): 25%
Early blight of tomato (inhibition) ([7]; Concentration 100 μg/g): 41%
inhibition of growth at 12.5 µg/g ([8]; Table 8): 33%
inhibition of growth at 25 µg/g ([8]; Table 7): 64%
inhibition of growth at 25 µg/g ([8]; Table 8): 68%
inhibition of growth at 50 µg/g ([8]; Table 7): 70%
inhibition of growth at 50 µg/g ([8]; Table 8): 69%
inhibition of growth at 100 µg/g [8, 13]: 96%
inhibition of growth at 100 µg/g [8, 11]: 98%
melting point: 163 to 165 °C

CC1COC(Cn2cncn2)(c2ccc(Oc3ccc(Cl)cc3)cc2Cl)O1 (centres unmarked) [Difenoconazole, reference compound]
inhibition of growth at 100 µg/g [5, 12]: 86%
inhibition of growth at 100 µg/g ([5]; Concentration 100 μg/g, Table 8, read-out: Gray mold of cucumber (inhibition)): 96%
inhibition of growth at 100 µg/g [5, 9]: 73%
inhibition of growth at 100 µg/g [5, 10]: 96%
inhibition of growth at 100 µg/g [6]: 98%
Wheat scab (inhibition) ([6]; Concentration 100 μg/g): 95%
inhibition of growth at 100 µg/g [7]: 100%
inhibition of growth at 100 µg/g [8, 13]: 91%
inhibition of growth at 100 µg/g ([8]; Concentration 100 μg/g, Table 8, read-out: Sheath and culm blight of rice (inhibition)): 100%
inhibition of growth at 100 µg/g [8, 11]: 100%
